Assay results as given in EPA's ToxRefDB 2.

Key:
mouse [1] = settings: Reproduction/developmental toxicity screening test, other, Injection, Subcutaneous, dose end: 1 PND
mouse [2] = settings: Carcinogenicity; other; Oral; Water; dose end: 18 week; group: systemic; systemic / pathology microscopic / lung / mixed tumor nos
mouse [3] = settings: Subchronic oral toxicity in rodents, BALB/c, Water, dose end: 141 day, group: systemic, systemic / pathology microscopic / liver / hemangioma + systemic / pathology microscopic / liver / hemangiosarcoma + systemic / pathology …
mouse [4] = settings: Subchronic oral toxicity in rodents, cd1, Feed, dose end: 13 week, group: systemic, systemic / in life observation / body weight / body weight gain + systemic / organ weight / liver / absolute + systemic / organ weight / …
rat [5] = settings: Subchronic oral toxicity in rodents, wistar, Feed, dose end: 13 week, group: systemic
rabbit [6] = settings: Prenatal developmental toxicity study, new zealand white, Oral, Gavage/Intubation, dose end: 18 GD
rat [7] = settings: Sub-acute repeat dose toxicity; wistar; Oral; Feed; dose end: 4 week; group: systemic; systemic / clinical chemistry / lactic acid dehydrogenase (ldh) / lactic acid dehydrogenase (ldh) + systemic / organ weight / liver / …
rat [8] = settings: Sub-acute repeat dose toxicity, wistar, Oral, Feed, dose end: 4 week, group: systemic
rat [9] = settings: Subchronic oral toxicity in rodents, wistar, Feed, dose end: 13 week, group: systemic; remark: listed apart in the source
rat [10] = settings: Subchronic oral toxicity in rodents, wistar, Feed, dose end: 13 week, group: systemic, systemic / clinical chemistry / calcium / calcium + systemic / clinical chemistry / creatinine / creatinine + systemic / clinical chemistry…
mouse [11] = settings: Carcinogenicity; cd1; Oral; Feed; dose end: 88 week; group: systemic; systemic / pathology microscopic / liver / hypertrophy + systemic / pathology microscopic / liver / inflammation + systemic / pathology …
rat [12] = settings: Sub-acute dermal toxicity, wistar, Topical, dose end: 28 day, group: systemic, systemic / clinical chemistry / cholesterol / cholesterol + systemic / clinical chemistry / globulins / globulins + systemic / clinical …
rabbit [13] = settings: Sub-acute dermal toxicity, new zealand white, Topical, dose end: 21 day, group: systemic, systemic / in life observation / clinical signs / desquamation + systemic / in life observation / clinical signs / erythema + systemic / …
dog [14] = settings: Subchronic oral toxicity in nonrodent, beagle, Feed, dose end: 13 week, group: systemic, systemic / clinical chemistry / alkaline phosphatase (alp/alk) / alkaline phosphatase (alp/alk) + systemic / clinical chemistry / gamma …
dog [15] = settings: Chronic toxicity; beagle; Oral; Feed; dose end: 52 week; group: systemic; systemic / clinical chemistry / cytochrome p450, nos / cytochrome p450, nos + systemic / clinical chemistry / glutathione-s-transferase / …
rabbit [16] = settings: Prenatal developmental toxicity study, new zealand white, Oral, Gavage/Intubation, dose end: 18 GD; remark: listed apart in the source
rat [17] = settings: Prenatal developmental toxicity study, wistar, Oral, Gavage/Intubation, dose end: 15 GD
rat [18] = settings: Subchronic oral toxicity in rodents, fischer, Feed, dose end: 14 week, group: systemic
mouse [19] = settings: Subchronic oral toxicity in rodents, b6c3f1, Feed, dose end: 14 week, group: systemic
mouse [20] = settings: Carcinogenicity; b6c3f1; Oral; Gavage/Intubation; dose end: 90 week; group: systemic; systemic / pathology microscopic / liver / carcinoma + systemic / in life observation / clinical signs / alopecia + systemic / in life …
rat [21] = settings: Carcinogenicity; other; Oral; Gavage/Intubation; dose end: 113 week; group: systemic; systemic / in life observation / body weight / body weight gain + systemic / in life observation / clinical signs / nasal discharge + …
mouse [22] = settings: Multigenerational reproductive toxicity study, Other, Oral, Feed, dose end: 90 day
rat [23] = settings: Combined chronic toxicity/carcinogenicity, fischer, Oral, Feed, dose end: 2 year, group: systemic
[24] = group: developmental, developmental / offspring survival late / [other] / [other]
[25] = group: maternal, reproductive / offspring survival early / dead fetuses / dead fetuses
[26] = group: offspring, systemic / pathology microscopic / liver / [other] + systemic / pathology gross / full gross necropsy / hemangiosarcoma
[27] = group: offspring, systemic / pathology microscopic / liver / [other] + systemic / pathology microscopic / liver / hemangioma + systemic / pathology …
[28] = systemic / in life observation / body weight / body weight gain + systemic / clinical chemistry / alanine aminotransferase (alt/sgpt) / …
[29] = group: developmental, developmental / developmental malformation / general / [other] + developmental / developmental malformation / limb / malrotated
[30] = group: maternal, systemic / in life observation / body weight / body weight gain
[31] = group: maternal, systemic / in life observation / body weight / body weight gain + systemic / in life observation / food consumption / food consumption
[32] = systemic / pathology microscopic / liver / lipid deposition + systemic / pathology microscopic / liver / vacuolization
[33] = systemic / pathology microscopic / liver / lipid deposition + systemic / pathology microscopic / liver / vacuolization + systemic / clinical…
[34] = systemic / organ weight / liver / absolute + systemic / organ weight / liver / relative to body weight + systemic / pathology microscopic / …
[35] = systemic / pathology microscopic / thyroid gland / hypertrophy
[36] = group: developmental, systemic / in life observation / body weight / fetal weight + developmental / developmental malformation / bone / [other] + developmental / …
[37] = group: maternal, reproductive / reproductive performance / postimplantation loss / postimplantation loss + systemic / in life observation / body weight / …
[38] = group: developmental, developmental / developmental malformation / bone / full supernumerary
[39] = group: developmental, developmental / developmental malformation / bone / full supernumerary + developmental / developmental malformation / bone / incomplete …
[40] = group: maternal, systemic / in life observation / body weight / body weight gain + reproductive / reproductive performance / postimplantation loss / …
[41] = systemic / pathology microscopic / liver / vacuolization cytoplasmic + systemic / organ weight / liver / nos + systemic / pathology gross…
[42] = systemic / organ weight / liver / absolute + systemic / organ weight / liver / relative to body weight + systemic / pathology gross / liver…
[43] = group: parental, systemic / in life observation / mortality / mortality
[44] = group: reproductive, reproductive / reproductive performance / fertility / fertility + reproductive / reproductive performance / mating / mating + reproductive…
[45] = systemic / pathology microscopic / kidney / nephropathy + systemic / pathology microscopic / liver / cytomegaly + systemic / pathology …
[46] = systemic / pathology microscopic / liver / cytomegaly + systemic / in life observation / food consumption / food consumption

SMILES: CN(C)N=O [N-Nitrosodimethylamine]
- LEL (mouse [1]; [24]): 1 mg/kg/day
- LOAEL (mouse [1]; [24]): > 50 mg/kg/day
- NEL (mouse [1]; [24]): < 1 mg/kg/day
- NOAEL (mouse [1]; [24]): ≥ 50 mg/kg/day
- LEL (mouse [1]; [25]): 20 mg/kg/day
- LOAEL (mouse [1]; [25]): > 50 mg/kg/day
- NEL (mouse [1]; [25]): 10 mg/kg/day
- NOAEL (mouse [1]; [25]): ≥ 50 mg/kg/day
- LEL (mouse [1]; [26]): 1 mg/kg/day
- NEL (mouse [1]; [26]): < 1 mg/kg/day
- LOAEL (mouse [1]; [27]): > 50 mg/kg/day
- NOAEL (mouse [1]; [27]): ≥ 50 mg/kg/day
- LEL (mouse [2]): 0.0667 mg/kg/day
- LOAEL (mouse [2]): > 0.0667 mg/kg/day
- NEL (mouse [2]): < 0.0667 mg/kg/day
- NOAEL (mouse [2]): ≥ 0.0667 mg/kg/day
- LEL (mouse [3]): 1.33 mg/kg/day
- LOAEL (mouse [3]): > 1.33 mg/kg/day
- NEL (mouse [3]): < 1.33 mg/kg/day
- NOAEL (mouse [3]): ≥ 1.33 mg/kg/day

SMILES: CC(C1CC1)C(O)(Cn1cncn1)c1ccc(Cl)cc1 (stereo unspecified) [Cyproconazole]
- LEL (mouse [4]): 43.8 mg/kg/day
- LOAEL (mouse [4]): 43.8 mg/kg/day
- NEL (mouse [4]): 2.2 mg/kg/day
- NOAEL (mouse [4]): 2.2 mg/kg/day
- LOAEL (rat [5]; systemic / in life observation / body weight / body weight gain): 27.3 mg/kg/day
- NEL (rat [5]; [28]): 1.5 mg/kg/day
- NOAEL (rat [5]; [28]): 1.5 mg/kg/day
- LEL (rat [5]; systemic / in life observation / body weight / body weight gain + systemic / in life observation / food consumption / food efficiency + …): 27.3 mg/kg/day
- LOAEL (rabbit [6]; group: developmental, developmental / developmental malformation / general / [other]): 10 mg/kg/day
- LEL (rabbit [6]; [29]): 10 mg/kg/day
- NEL (rabbit [6]; [29]): 2 mg/kg/day
- NOAEL (rabbit [6]; [29]): 2 mg/kg/day
- LOAEL (rabbit [6]; [30]): 50 mg/kg/day
- LEL (rabbit [6]; [31]): 50 mg/kg/day
- NEL (rabbit [6]; [31]): 10 mg/kg/day
- NOAEL (rabbit [6]; [31]): 10 mg/kg/day
- LEL (rat [7]): 25.3 mg/kg/day
- LOAEL (rat [7]): 25.3 mg/kg/day
- NEL (rat [7]): 8.14 mg/kg/day
- NOAEL (rat [7]): 8.14 mg/kg/day
- LEL (rat [8]; [32]): 527 mg/kg/day
- LOAEL (rat [8]; [32]): 527 mg/kg/day
- NEL (rat [8]; [33]): 155 mg/kg/day
- NOAEL (rat [8]; [33]): 155 mg/kg/day
- LOAEL (rat [9]; [34]): 24.7 mg/kg/day
- LEL (rat [9]; [35]): 1.4 mg/kg/day
- NEL (rat [9]; [35]): < 1.4 mg/kg/day
- NOAEL (rat [9]; systemic / pathology microscopic / thyroid gland / hypertrophy + systemic / organ weight / liver / absolute + systemic / organ weight / …): 1.4 mg/kg/day
- LEL (rat [10]): 1.5 mg/kg/day
- LOAEL (rat [10]): > 21.4 mg/kg/day
- NEL (rat [10]): < 1.5 mg/kg/day
- NOAEL (rat [10]): ≥ 21.4 mg/kg/day
- LEL (mouse [11]): 13.2 mg/kg/day
- LOAEL (mouse [11]): 13.2 mg/kg/day
- NEL (mouse [11]): 1.84 mg/kg/day
- NOAEL (mouse [11]): 1.84 mg/kg/day
- LEL (rat [12]): 100 mg/kg/day
- LOAEL (rat [12]): 100 mg/kg/day
- NEL (rat [12]): 10 mg/kg/day
- NOAEL (rat [12]): 10 mg/kg/day
- LEL (rabbit [13]): 1000 mg/kg/day
- LOAEL (rabbit [13]): 1000 mg/kg/day
- NEL (rabbit [13]): 300 mg/kg/day
- NOAEL (rabbit [13]): 300 mg/kg/day
- LEL (dog [14]): 20 mg/kg/day
- LOAEL (dog [14]): 20 mg/kg/day
- NEL (dog [14]): 4 mg/kg/day
- NOAEL (dog [14]): 4 mg/kg/day
- LEL (dog [15]): 3.2 mg/kg/day
- LOAEL (dog [15]): 3.2 mg/kg/day
- NEL (dog [15]): 1 mg/kg/day
- NOAEL (dog [15]): 1 mg/kg/day
- LOAEL (rabbit [16]; group: developmental, systemic / in life observation / body weight / fetal weight): 60 mg/kg/day
- LEL (rabbit [16]; [36]): 60 mg/kg/day
- NEL (rabbit [16]; [36]): 10 mg/kg/day
- NOAEL (rabbit [16]; [36]): 10 mg/kg/day
- LEL (rabbit [16]; [37]): 60 mg/kg/day
- LOAEL (rabbit [16]; [37]): 60 mg/kg/day
- NEL (rabbit [16]; [37]): 10 mg/kg/day
- NOAEL (rabbit [16]; [37]): 10 mg/kg/day
- LEL (rat [17]; [38]): 12 mg/kg/day
- LOAEL (rat [17]; [38]): 12 mg/kg/day
- NEL (rat [17]; [39]): 6 mg/kg/day
- NOAEL (rat [17]; [39]): 6 mg/kg/day
- LEL (rat [17]; [30]): 12 mg/kg/day
- LOAEL (rat [17]; [30]): 12 mg/kg/day
- NEL (rat [17]; [40]): 6 mg/kg/day
- NOAEL (rat [17]; [40]): 6 mg/kg/day

SMILES: ClC(Cl)C(Cl)Cl [1,1,2,2-Tetrachloroethane]
- LOAEL (rat [18]; systemic / in life observation / body weight / body weight gain + systemic / pathology microscopic / liver / vacuolization cytoplasmic): 40 mg/kg/day
- NOAEL (rat [18]; systemic / in life observation / body weight / body weight gain + systemic / pathology microscopic / liver / vacuolization cytoplasmic + …): 20 mg/kg/day
- LEL (rat [18]; [41]): 20 mg/kg/day
- NEL (rat [18]; [41]): < 20 mg/kg/day
- LEL (mouse [19]; [42]): 80 mg/kg/day
- NEL (mouse [19]; [42]): < 80 mg/kg/day
- LOAEL (mouse [19]; [34]): 160 mg/kg/day
- NOAEL (mouse [19]; [34]): 80 mg/kg/day
- LEL (mouse [20]): 142 mg/kg/day
- LOAEL (mouse [20]): > 284 mg/kg/day
- NEL (mouse [20]): < 142 mg/kg/day
- NOAEL (mouse [20]): ≥ 284 mg/kg/day
- LEL (rat [21]): 43 mg/kg/day
- LOAEL (rat [21]): > 76 mg/kg/day
- NEL (rat [21]): < 43 mg/kg/day
- NOAEL (rat [21]): ≥ 76 mg/kg/day

SMILES: ClC1(Cl)C2(Cl)C3(Cl)C4(Cl)C(Cl)(Cl)C5(Cl)C3(Cl)C1(Cl)C5(Cl)C24Cl (stereo unspecified) [Mirex]
- LEL (mouse [22]; [43]): 0.25 mg/kg/day
- LOAEL (mouse [22]; [43]): > 0.25 mg/kg/day
- NEL (mouse [22]; [43]): < 0.25 mg/kg/day
- NOAEL (mouse [22]; [43]): ≥ 0.25 mg/kg/day
- LEL (mouse [22]; [44]): 0.25 mg/kg/day
- LOAEL (mouse [22]; [44]): > 0.25 mg/kg/day
- NEL (mouse [22]; [44]): < 0.25 mg/kg/day
- NOAEL (mouse [22]; [44]): ≥ 0.25 mg/kg/day
- LOAEL (rat [23]; [45]): 1.95 mg/kg/day
- NOAEL (rat [23]; [45]): 0.75 mg/kg/day
- LEL (rat [23]; [46]): 0.007 mg/kg/day
- NEL (rat [23]; [46]): < 0.007 mg/kg/day
